Measured values from patent US7687484B2, “Transporter enhanced corticosteroid activity” (priority 2006, dated 2010).
Read-outs that look alike come from different tables or passages of the source.

What was measured:
glucocorticoid receptor [1] = target: T1, glucocorticoid receptor (Homo sapiens, UniProt P04150); details: cited from earlier work
T1 sequence (P04150 1-777): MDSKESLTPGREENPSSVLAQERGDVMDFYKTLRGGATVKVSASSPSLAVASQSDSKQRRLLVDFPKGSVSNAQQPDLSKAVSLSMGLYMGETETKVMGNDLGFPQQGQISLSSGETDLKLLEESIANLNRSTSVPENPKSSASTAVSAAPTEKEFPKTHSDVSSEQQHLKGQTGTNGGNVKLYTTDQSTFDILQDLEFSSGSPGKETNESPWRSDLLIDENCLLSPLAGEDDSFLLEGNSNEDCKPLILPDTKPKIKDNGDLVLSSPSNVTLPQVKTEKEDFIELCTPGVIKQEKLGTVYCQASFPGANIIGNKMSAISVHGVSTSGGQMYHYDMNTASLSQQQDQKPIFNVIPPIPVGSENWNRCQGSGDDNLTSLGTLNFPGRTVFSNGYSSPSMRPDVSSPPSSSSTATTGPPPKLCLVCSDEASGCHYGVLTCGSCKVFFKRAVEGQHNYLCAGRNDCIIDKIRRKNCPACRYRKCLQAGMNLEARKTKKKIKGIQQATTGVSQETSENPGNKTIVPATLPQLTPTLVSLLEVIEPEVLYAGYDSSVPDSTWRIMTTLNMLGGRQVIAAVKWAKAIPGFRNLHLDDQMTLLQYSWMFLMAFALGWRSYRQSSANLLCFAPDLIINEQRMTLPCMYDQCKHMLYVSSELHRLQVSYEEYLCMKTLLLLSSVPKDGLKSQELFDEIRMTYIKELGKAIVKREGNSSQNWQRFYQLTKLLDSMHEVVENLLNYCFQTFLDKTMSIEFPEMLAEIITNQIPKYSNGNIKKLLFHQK

glucocorticoid receptor [2] = target: T1, glucocorticoid receptor; test: Relative binding affinity for the glucocorticoid receptor (GCR/GR); details: GRs were calculated from RBAs; read-out: GR Est. IC50
[3] = test system: forearms of human volunteers; test: Human vasoconstriction (blanching) testing; type: in vivo; design: key to Vasoconstriction activity (total score of 4 tests): sum of 4 tests, each 0 = normal skin to 4 = very intense pallor
Method: Solutions of LE, HC and PRN (0.1 or 1 mM) alone, or mixtures of LE and HC (0.1+0.1 mM, or 1+1 mM), or LE and PRN (0.1+0.1 mM, or 1+1 mM) were prepared with a vehicle containing absolute ethanol and propylene glycol (9:1). […] After evaporation of ethanol (20 min), the films were applied to the forearms of human volunteers for 4 hours. Subsequently, the vasoconstriction reaction was read and judged by the appearance of pallor at various time intervals after the removal of the discs and films. The grading scale was as follows: 0, normal skin; 1, slight pallor; 2, pallor with at least two corners outlined; 3, even pallor with a clear outlined of the application sites; 4, very intense pallor. Due to the relatively high variations in response between the volunteers, a total score of 4 tests at each time point was taken for the activity evaluation.

[4] = anti-inflammatory activity, LE vs hydrocortisone; cited from earlier work
transcortin (CBG) = target: T2, transcortin (CBG) (Homo sapiens, UniProt P08185); test: Binding of corticosteroids to transcortin: 3H-cortisol competition in charcoal-treated diluted plasma
T2 construct: from tissue; host or cells: plasma from venous blood of healthy volunteers, charcoal-treated, diluted 100-fold
T2 sequence (P08185 23-405): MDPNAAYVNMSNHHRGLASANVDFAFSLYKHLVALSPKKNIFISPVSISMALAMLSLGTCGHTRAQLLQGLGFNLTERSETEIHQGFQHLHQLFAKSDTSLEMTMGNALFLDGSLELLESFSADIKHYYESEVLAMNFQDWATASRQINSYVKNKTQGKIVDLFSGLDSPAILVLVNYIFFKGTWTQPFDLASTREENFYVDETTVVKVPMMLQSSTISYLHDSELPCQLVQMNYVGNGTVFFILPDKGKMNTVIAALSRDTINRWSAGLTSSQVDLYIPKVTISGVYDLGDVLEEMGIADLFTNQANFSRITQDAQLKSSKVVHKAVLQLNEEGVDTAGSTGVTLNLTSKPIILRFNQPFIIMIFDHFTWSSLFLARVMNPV
Method: Experimental procedure: Venous blood was collected from healthy volunteers into heparin-containing tubes (5 Us/100 ml serum) and cells were separated from plasma by centrifugation (1500 g for 15 min). […] Charcoal-treated plasma was diluted 100-fold with binding buffer (10 mM Tris-HCl; 2 mM DTT (dithiotreitol); 1.5 mM EDTA; 0.02 M Na2MoO4; 10% Glycerol; pH 7.4) and was stored aliquoted at −80° C. […] The assay ingredients were mixed and the tubes were incubated for 1 hour on ice. At the end of the incubation, 0.2 ml of charcoal suspension (0.5% Norit A and 0.05% BSA) was added to each tube. The tubes were briefly agitated and incubated for an additional 10 min at 0° C. They were then centrifuged for 10 min at 15 000 g, and the same aliquots from the clear supernatants were quantitatively decanted into counting vials and combined with 3 ml of toluene-based scintillation fluid. […] Specific binding and IC50-values were calculated.

[5] = logP reported in literature; cited from earlier work

CCOC(=O)O[C@]1(C(=O)OCCl)CC[C@H]2[C@@H]3CCC4=CC(=O)C=C[C@]4(C)[C@H]3[C@@H](O)C[C@@]21C [Loteprednol etabonate, chloromethyl 17α-ethoxycarbonyloxy-11β-hydroxyandrosta-1,4-dien-3-one-17β-carboxylate]
Intrinsic activity in in vitro receptor binding studies (in words) (glucocorticoid receptor [1]; Druzgala et al. 1991, [3H]-triamcinolone acetonide tracer, 10^−5M cortienic acid as competitor): intrinsically active | rBA (relative receptor binding affinity) (glucocorticoid receptor [1]; relative to dexamethasone = 100, average of all values if multiple available): 150 | IC50 (glucocorticoid receptor [2]): 4 nM | Vasoconstriction activity (total score of 4 tests) ([3]; 0.1 mM, 2 hr after removal, 4 h application): 2 | Vasoconstriction activity (total score of 4 tests) ([3]; 0.1 mM, 4 hr after removal): 3 | Vasoconstriction activity (total score of 4 tests) ([3]; 0.1 mM, 6 hr after removal): 5 | Vasoconstriction activity (total score of 4 tests) ([3]; 0.1 mM, 8 hr after removal): 5 | Vasoconstriction activity (total score of 4 tests) ([3]; 0.1 mM, 10 hr after removal): 3 | Vasoconstriction activity (total score of 4 tests) ([3]; 0.1 mM, 16 hr after removal): 1 | Vasoconstriction activity (total score of 4 tests) ([3]; 0.1 mM, 18 hr after removal): 1 | Vasoconstriction activity (total score of 4 tests) ([3]; 0.1 mM, 24 hr after removal): 1 | Vasoconstriction activity (total score of 4 tests) ([3]; 1 mM, 2 hr after removal, 4 h application): 6 | Vasoconstriction activity (total score of 4 tests) ([3]; 1 mM, 4 hr after removal): 7 | Vasoconstriction activity (total score of 4 tests) ([3]; 1 mM, 6 hr after removal): 8 | Vasoconstriction activity (total score of 4 tests) ([3]; 1 mM, 8 hr after removal): 8 | Vasoconstriction activity (total score of 4 tests) ([3]; 1 mM, 10 hr after removal): 9 | Vasoconstriction activity (total score of 4 tests) ([3]; 1 mM, 16 hr after removal): 6 | Vasoconstriction activity (total score of 4 tests) ([3]; 1 mM, 18 hr after removal): 5 | Vasoconstriction activity (total score of 4 tests) ([3]; 1 mM, 24 hr after removal): 2 | Vasoconstriction activity alone (in words) ([3]; by itself, concentration range 0.1 to 1 mM, human skin): good vasoconstriction activity | Increase of vasoconstriction activity of LE by addition of the same amount of HC or PRN ([3]; co-administration of 0.1 mM HC or PRN): 60-80% | Increase of vasoconstriction activity of LE by addition of the same amount of HC or PRN ([3]; co-administration of 1 mM HC or PRN): 60-75% | Activity relative to hydrocortisone [4]: approximately 20 times | IC50 (transcortin (CBG); 3 nM 3H-cortisol, 1 hour on ice, plasma diluted 100-fold, read-out: IC50-values (nM) average ± SEM (n)): 272 ± 27 nM | IC50 (transcortin (CBG); estimated, unpublished results Bodor, Kurucz 2006, read-out: CBG Est. IC50): 270 nM | logP [5]: 3.03
